Source: BindingDB's records for doi:10.1021/jm020562o (University of Vermont, 2003)

Assay: Binding affinity was determined against Opioid receptor delta 1 from guinea pig brain membranes

For `COCC[C@H]1CC2CN3CCc4c([nH]c5ccccc45)[C@](C(=O)OC)(C2)C13` [18-methoxycoronaridine], the Ki was 3.5 µM.
